Data: patent publication US7964731B2, “Isotopically marked quinoline derivatives as adenosin A3 receptor ligands” (Sanofi-Aventis, priority 2004, dated 2011)
pKd, pKi: −log10 of the molar value.

Assays:
[1] = target: T1, human adenosine A3 receptor (CHO-hA3 membrane preparation) (Homo sapiens, UniProt P0DMS8); experiment: Scatchard analysis of radioisotope saturation curves of the radioligand of Example 2/a; format: binding
T1 sequence (P0DMS8 1-318): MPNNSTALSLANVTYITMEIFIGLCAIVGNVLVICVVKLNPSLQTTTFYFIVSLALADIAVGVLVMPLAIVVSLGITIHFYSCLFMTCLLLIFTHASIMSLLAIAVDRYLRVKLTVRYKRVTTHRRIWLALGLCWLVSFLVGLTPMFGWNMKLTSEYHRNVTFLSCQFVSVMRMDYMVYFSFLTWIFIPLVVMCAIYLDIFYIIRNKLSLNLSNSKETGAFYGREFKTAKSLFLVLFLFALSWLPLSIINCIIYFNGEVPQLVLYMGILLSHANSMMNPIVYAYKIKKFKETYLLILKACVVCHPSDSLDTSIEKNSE
Experimental: (§1) Preparing membrane suspension: collect ovarium cells of cloned Chinese hamster expressing human A3 receptors (further: CHO-hA3), wash them three times with PBS, centrifuge (1000×g 10 min.) and homogenize (B.Braun Potter S) at 1500/min rotation speed. Buffer: 50 mM Tris, 10 mM MgCl2, 1 mM EDTA, pH 8.0. Centrifuge this homogenized mixture (43.000 g, 10 min), suspense the pellet in the above buffer with adjustment of the protein concentration to 0.1 mg/mL (Bradford method) and complete with 2 U/mL ADA.
Incubate the CHO-hA3 membrane preparation (protein content 4 μg) in the presence of the test compound and 0.5 nM of the compound containing radioactive iodine (100.000 cpm), described in Example 2/a, in incubation buffer (50 mM Tris, pH 8.0, 10 mM MgCl2, 1 mM EDTA, 0.08% CHAPS, 0.5% BSA, 2 U/mL adenosine deaminase). […] Keep the isotop preparation and the reaction mixture in polyethylene tube to decrease adsorption. […] Detection of radioactivity: in gamma-counter (1470 Wizard, Wallac). […]
On the basis of radioisotop saturation curves, by Scatchard analysis (G. Scatchard, Ann. N. Y. Acad. Sci. 51:660, 1949) the dissociation constant (KD) of the new radioligand of Example 2/a on CHO-hA3 membrane preparation is determined.

[2] = target: T2, human A2b adenosine receptors transfected into HEK-293 cells (Homo sapiens, UniProt P29275); experiment: Human adenosine A2b receptor binding, [3H]DPCPX; conditions: 1 μM test compound, radioligand [3H]DPCPX; read-out: Inhibition in 1 μM hA2B [3H]DPCPX
T2 construct: purchased Receptor Biology, Inc; host or cells: HEK-293 cells (transfected), membranes
T2 sequence (P29275 1-332): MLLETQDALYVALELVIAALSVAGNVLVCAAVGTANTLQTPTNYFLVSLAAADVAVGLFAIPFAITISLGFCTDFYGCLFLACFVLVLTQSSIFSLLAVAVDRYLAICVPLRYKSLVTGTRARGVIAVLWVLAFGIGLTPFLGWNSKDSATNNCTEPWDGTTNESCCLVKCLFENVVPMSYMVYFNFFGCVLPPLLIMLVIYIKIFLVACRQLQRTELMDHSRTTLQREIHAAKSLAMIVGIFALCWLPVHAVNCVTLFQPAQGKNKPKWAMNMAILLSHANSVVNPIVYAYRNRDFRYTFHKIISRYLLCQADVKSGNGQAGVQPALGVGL
Experimental: Human Adenosine A2b Receptor Binding
Binding protocol: incubate 20.8 μg of membranes (human A2b adenosine receptors transfected into HEK-293 cells, source: Receptor Biology, Inc.), in the presence of the test compound and 32.4 nM [^3H]DPCPX (8-cyclopenthyl-1,3-dipropylxanthine) (800.000 dpm) in incubation buffer (50 mM Tris-HCl, 10 mM MgCl2, 1 mM EDTA, 0.1 mM benzamidine, 2 U/mL adenosine deaminase, pH 6.5). The non-specific binding is defined in the presence of 100 μM NECA (5′-N-ethylcarboxamido-adenosine) in a total volume of 100 μL for 30 min at room temperature. Filter under 25 Hgmm vacuum over Whatman GF/C glass fibre filters (presoaked in 0.5% polyethylimine for 3 hours), wash 4× with 1 mL ice-cold 50 mM Tris HCl (pH 6.5) on 96-well Brandel Cell Harvester. Detection of activity: in beta-counter (1450 Microbeta, Wallac) in the presence of 200 μL of HiSafe-3 cocktail. Inhibition [%]=100−((activity in the presence of test compound−non-specific activity)/(total activity−non-specific activity))*100

[3] = target: T3, human A2a adenosine receptors transfected into HEK-293 cells (Homo sapiens, UniProt P29274); experiment: Human adenosine A2a receptor binding, [3H]CGS-21680; conditions: 1 μM test compound, radioligand [3H]CGS21680; read-out: Inhibition in 1 μM hA2A [3H]CGS21680
T3 construct: purchased Receptor Biology, Inc; host or cells: HEK-293 cells (transfected), membranes
Experimental: Human Adenosine A2a Receptor Binding
Incubate 7 μg of membranes (human A2, adenosine receptors transfected into HEK-293 cells, source: Receptor Biology, Inc.), in the presence of the test compound and 20 nM [^3H]CGS-21680 (2-[p-(2-carbonylethyl)phenylethylamino]-5′-N-ethylcarboxamido-adenosine) (200.000 dpm) in incubation buffer (50 mM Tris HCl, 10 mM MgCl2, 1 mM EDTA, 2 U/mL adenosine deaminase, pH 7.4). The non-specific binding is defined in the presence of […] NECA (5′-N-ethylcarboxamido-adenosine) in a total volume of 100 μl for 90 min at room temperature. Filter in vacuum over Whatman GF/B glass fibre filters (presoaked for 3 hours in 0.5% polyethylimine), wash 4× with 1 mL ice-cold buffer (50 mM Tris HCl, 10 mM MgCl2, 1 mM EDTA, 0.9% NaCl, pH 7.4) on 96-well Brandel Cell Harvester. Detection of activity: in beta-counter (1450 Microbeta, Wallac) in the presence of 200 μL HiSafe-3 cocktail. Inhibition [%]=100−((activity in the presence of test compound−non-specific activity)/(total activity−non-specific activity))*100.

[4] = target: T4, human A3 receptors (CHO-hA3 membrane preparation) (Homo sapiens, UniProt P0DMS8); experiment: Human adenosine A3 receptor binding in the presence of [125I]AB-MECA
T4 sequence (P0DMS8 1-318): T1 sequence (P0DMS8 1-318)
Experimental: Human Adenosine A3 Receptor Binding
as §1
Receptor Binding in the Presence of [^125I]AB-MECA:
Incubate the CHO-hA3 membrane preparation (protein content 2 μg) in the presence of the test compound and 0.5 nM [^125I]AB-MECA (4-amino-3-iodo-benzyl-5′-N-methylcarboxamide-adenosine) (100.000 cpm) in incubation buffer (50 mM Tris, 10 mM MgCl2, 1 mM EDTA, 2 U/mL adenosine deaminase, pH 8.0). […] Filter under 25 Hgmm vacuum over Whatman GF/C glass fibre filters (presoaked in 0.5% polyethylimine for 3 hours), wash 4× with 1 mL ice-cold buffer (50 mM Tris, 10 mM MgCl2, 1 mM EDTA, pH 8) on 96-well Brandel Cell Harvester. Detection of radioactivity: in gamma-counter (1470 Wizard, Wallac). Inhibition [%]=100−((activity in the presence of test compound−non-specific activity)/(total activity−non-specific activity))*100.

[5] = target: T4, human A3 receptors (CHO-hA3 membrane preparation); experiment: Human adenosine A3 receptor binding in the presence of the radioactive iodine-containing compound of Example 2/a; conditions: radioligand of Example 2/a, 4 μg CHO-hA3 preparation, Cheng-Prusoff from IC50; read-out: Ki, the radioligand given in Example 2/a
Experimental: as §1
Receptor Binding in the Presence of the Radioactive Iodine-Containing Compound of Example 2/a:
Incubate the CHO-hA3 membrane preparation (protein content 4 μg) in the presence of the test compound and 0.5 nM of the compound containing radioactive iodine (100.000 cpm), described in Example 2/a, in incubation buffer (50 mM Tris, pH 8.0, 10 mM MgCl2, 1 mM EDTA, 0.08% CHAPS, 0.5% BSA, 2 U/mL adenosine deaminase). […] Detection of radioactivity: in gamma-counter (1470 Wizard, Wallac). […]
Knowing the KD values, by the Cheng-Prusoff equation (Y. J. Cheng and W. H. Prusoff, Biochem. Pharmacol. 22:3099, 1973) the Ki constants of the investigated reference compounds and that of the starting compound of Example 2/b (i.e. of the un-labeled analogue of the new radioligand of Example 2/a) were calculated on the basis of the IC50 values.

[6] = target: T5, human A1 receptors (CHO-hA1 membrane preparation) (Homo sapiens, UniProt P30542); experiment: Human adenosine A1 receptor binding, [3H]CCPA; conditions: 1 μM test compound, radioligand [3H]CCPA
T5 sequence (P30542 1-326): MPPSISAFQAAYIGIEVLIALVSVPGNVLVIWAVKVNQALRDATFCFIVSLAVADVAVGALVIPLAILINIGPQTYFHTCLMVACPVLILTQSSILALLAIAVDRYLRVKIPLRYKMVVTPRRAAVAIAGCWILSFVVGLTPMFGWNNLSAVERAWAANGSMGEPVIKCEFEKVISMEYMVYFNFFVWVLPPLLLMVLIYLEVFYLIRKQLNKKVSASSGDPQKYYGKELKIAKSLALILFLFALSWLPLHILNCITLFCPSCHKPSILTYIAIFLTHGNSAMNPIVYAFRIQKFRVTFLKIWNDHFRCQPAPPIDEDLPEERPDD
Experimental: Preparing membrane suspension: collect ovarium cells of cloned Chinese hamster expressing human A1 receptors (further: CHO-hA1), wash them three times with PBS, centrifuge (1000×g 10 min.) and homogenize (B.Braun Potter S) at 1500/min rotation speed. Buffer: 50 mM Tris HCl, pH 7,4. Centrifuge this homogenized mixture (43.000 g, 10 min), suspense the pellet in the above buffer with adjustment of the protein concentration to 5 mg/mL (Bradford method) and complete with 2 U/mL ADA. […] Filter over Whatman GF/B glass fibre filters (presoaked in 0.5% polyethylimine for 3 hours), wash 4× with 1 mL ice-cold 50 mM Tris HCl (pH 7.4) on 96-well Brandel Cell Harvester. Detection of activity: in 96-well plate in the presence of HiSafe-3 cocktail in beta-counter (1450 Microbeta, Wallac). Inhibition [%]=100−((activity in the presence of test compound−non-specific activity)/(total activity−non-specific activity))*100

T3 sequence (P29274 whole entry): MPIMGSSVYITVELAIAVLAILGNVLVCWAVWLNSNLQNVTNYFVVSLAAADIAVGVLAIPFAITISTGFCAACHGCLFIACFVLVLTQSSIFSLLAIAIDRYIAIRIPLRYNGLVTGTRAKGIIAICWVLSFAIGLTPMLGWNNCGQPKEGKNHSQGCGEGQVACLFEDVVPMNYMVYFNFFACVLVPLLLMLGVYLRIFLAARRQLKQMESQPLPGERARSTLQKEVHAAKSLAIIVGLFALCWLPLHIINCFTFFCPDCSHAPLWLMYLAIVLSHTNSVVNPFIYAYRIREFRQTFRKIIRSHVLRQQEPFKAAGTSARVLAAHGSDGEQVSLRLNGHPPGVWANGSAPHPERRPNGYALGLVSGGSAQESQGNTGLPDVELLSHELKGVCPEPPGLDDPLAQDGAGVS

| SMILES | pKd ([1]; 0.156 nM-10 nM radioligand, 4 μg protein CHO-hA3, read-out: dissociation constant (KD)) | maximal binding capacity ([1]; 4 μg protein CHO-hA3) [femtomol/1 mg protein] | inhibition at 1 µM [2] [%] | inhibition at 1 µM [3] [%] | selectivity for adenosine A3 receptor compared to the other adenosine receptor sub-types ([4]; A3 versus A1, A2a, A2b) | pKi ([4]; radioligand [125I]AB-MECA, CHO-hA3 membranes) | pKi [5] | inhibition at 1 µM [6] [%] |
| --- | --- | --- | --- | --- | --- | --- | --- | --- |
| COc1ccc(C(=O)Nc2nc3ccc([125I])cc3c(NCc3cccs3)c2C#N)cc1 [Example 2/a, 4-Methoxy-N-(6-[^125I]iodo-4-[2-thienylmethylamino]-3-cyanoquinolin-2-yl)benzamide] | 8.40 | 985 |  |  |  |  |  |  |
| COc1ccc(C(=O)Nc2nc3ccc(I)cc3c(NCc3cccs3)c2C#N)cc1 [The starting compound of Example 2/b, 4-Methoxy-N-(6-iodo-4-[2-thienylmethylamino]-3-cyanoquinolin-2-yl)benzamide] |  |  | -16 | 29 | at least thousand-fold selectivity | 8.82 | 8.89 | 4 |
